# Legend:
# [1] = Solubility of the compound in water; format: physicochemical
# Liver carboxylesterase [2] = target: T1, Liver carboxylesterase (Sus scrofa, UniProt Q29550); assay: Drug level treated with Sodium (S)-2-(4-(4-((((3Z,6Z)-6-(3-benzoylbenzylidene)-5-oxo-3-(pyridine-2-ylmethylene)-3,4,5,6-tetrahydropyrazin-2-yl)oxy)methoxy)-4-oxobutyl)-1H-1,2,3-triazol-1-yl)succinate assessed as porcine liver carboxylic-ester hydrolase-mediated metabolite formation after 48 hrs by HPLC method; format: ADME; conditions: pig
# T1 sequence (Q29550 whole entry): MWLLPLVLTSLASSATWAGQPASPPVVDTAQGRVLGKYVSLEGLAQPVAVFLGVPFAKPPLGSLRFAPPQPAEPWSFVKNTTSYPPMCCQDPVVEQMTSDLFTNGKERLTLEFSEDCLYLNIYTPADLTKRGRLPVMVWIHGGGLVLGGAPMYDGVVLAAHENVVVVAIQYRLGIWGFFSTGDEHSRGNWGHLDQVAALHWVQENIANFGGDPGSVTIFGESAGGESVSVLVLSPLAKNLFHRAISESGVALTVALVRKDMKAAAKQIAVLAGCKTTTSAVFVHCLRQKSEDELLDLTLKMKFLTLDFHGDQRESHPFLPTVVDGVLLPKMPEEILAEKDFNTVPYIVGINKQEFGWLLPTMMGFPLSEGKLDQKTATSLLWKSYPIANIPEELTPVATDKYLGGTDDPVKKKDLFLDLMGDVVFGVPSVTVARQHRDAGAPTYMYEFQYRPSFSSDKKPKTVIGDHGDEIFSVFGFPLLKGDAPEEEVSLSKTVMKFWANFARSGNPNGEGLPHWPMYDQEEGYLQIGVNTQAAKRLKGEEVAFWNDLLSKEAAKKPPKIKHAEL
# Liver carboxylesterase [3] = target: T1, Liver carboxylesterase; assay: Drug metabolism assessed as porcine liver carboxylic-ester hydrolase-mediated compound hydrolysis by measuring half-life by HPLC analysis; format: ADME; conditions: pig, porcine liver carboxylic-ester hydrolase (liver esterase)
# [4] = Solubility of the compound in distilled water after 15 mins by HPLC method; format: physicochemical
# Liver carboxylesterase [5] = target: T1, Liver carboxylesterase; assay: Drug metabolism assessed as porcine liver carboxylic-ester hydrolase-mediated compound hydrolysis by measuring half-life at 500 ug by HPLC analysis; format: ADME; conditions: pig, porcine liver carboxylic-ester hydrolase (liver esterase)
# Liver carboxylesterase [6] = target: T1, Liver carboxylesterase; assay: Stability of the compound assessed as porcine liver esterase-mediated hydrolysis by measuring compound remaining after 48 hrs by HPLC method; format: ADME; conditions: pig, read-out: Stability
# Liver carboxylesterase [7] = target: T1, Liver carboxylesterase; assay: Drug level treated with Sodium (S)-2-(4-(4-((((3Z,6Z)-6-benzylidene-3-((5-(tertbutyl)-1H-imidazol-4-yl)methylene)-5-oxo-3,4,5,6-tetrahydropyrazin-2-yl)oxy)methoxy)-4-oxobutyl)-1H-1,2,3-triazol-1-yl)pentanedioate assessed as porcine liver carboxylic-ester hydrolase-mediated metabolite formation after 48 hrs by HPLC method; conditions: pig
# Liver carboxylesterase [8] = target: T1, Liver carboxylesterase; assay: Drug level treated with Sodium (S)-2-(4-(4-((((3Z,6Z)-6-benzylidene-3-((5-(tertbutyl)-1H-imidazol-4-yl)methylene)-5-oxo-3,4,5,6-tetrahydropyrazin-2-yl)oxy)methoxy)-4-oxobutyl)-1H-1,2,3-triazol-1-yl)succinate assessed as porcine liver carboxylic-ester hydrolase-mediated metabolite formation after 48 hrs by HPLC method; format: ADME; conditions: pig
Structure (SMILES),half-life (Liver carboxylesterase [3]) [h],solubility at 0.25 h [4] [µg/mL],further results
O=C(c1ccccc1)c1cccc(/C=c2\[nH]c(=O)/c(=C/c3ccccn3)[nH]c2=O)c1,–,–,solubility [1]: < 0.1 µg/mL; Drug metabolism (Liver carboxylesterase [2]): Metabolite_Detected
CC(C)(C)c1[nH]cnc1/C=c1\[nH]c(=O)/c(=C/c2ccccc2)nc1OCOC(=O)CCCc1cn([C@@H](CC(=O)[O-])C(=O)[O-])nn1.[Na+].[Na+],12,> 100000,–
CC(C)(C)c1[nH]cnc1/C=c1\[nH]c(=O)/c(=C/c2ccccc2)nc1OCOC(=O)CCCc1cn([C@@H]2O[C@H](CO)[C@H](O)[C@H](O)[C@H]2O)nn1,–,7.5,–
CC(C)(C)c1[nH]cnc1/C=c1\[nH]c(=O)/c(=C/c2ccccc2)nc1OCOC(=O)CCCc1cn([C@@H](CCC(=O)[O-])C(=O)[O-])nn1.[Na+].[Na+],5.4,> 100000,–
CC(C)(C)c1[nH]cnc1/C=c1\[nH]c(=O)/c(=C/c2ccccc2)nc1OCOC(=O)CCCc1cn(CC(=O)[O-])nn1.[Na+],–,590,–
CC(C)(C)c1[nH]cnc1/C=c1\[nH]c(=O)/c(=C/c2ccccc2)nc1OCOC(=O)CCCc1cn(C[C@H](O)CC(=O)[O-])nn1.[Na+],–,850,half-life (Liver carboxylesterase [5]): 0.37 h
CC(C)(C)c1[nH]cnc1/C=c1\[nH]c(=O)/c(=C/c2ccccc2)nc1OCOC(=O)CCCc1cn([C@H](CCC(=O)[O-])C(=O)[O-])nn1.[Na+].[Na+],9,> 100000,–
CC(C)(C)c1[nH]cnc1/C=c1\[nH]c(=O)/c(=C/c2ccccc2)nc1OCOC(=O)CCCc1cn([C@@H](CO)C(=O)[O-])nn1.[Na+],1,–,solubility [1]: 6380 µg/mL
"O=C(O)CC(C(=O)O)n1cc(CCCC(=O)OCOc2n/c(=C\c3cccc(C(=O)c4ccccc4)c3)c(=O)[nH]/c2=C\c2ccccn2)nn1 (single isomer, unassigned)",8.7,80000,remaining at 48 h (Liver carboxylesterase [6]): 20%
C=O [FORMALDEHYDE],–,–,Drug metabolism (Liver carboxylesterase [7]): Metabolite_Detected
CC(C)(C)c1[nH]cnc1/C=c1\[nH]c(=O)/c(=C/c2ccccc2)[nH]c1=O [PLINABULIN],–,–,Drug metabolism (Liver carboxylesterase [7]): Metabolite_Detected; Drug metabolism (Liver carboxylesterase [8]): Metabolite_Detected; solubility [1]: < 0.1 µg/mL

# Reference: ChEMBL document CHEMBL4033713, “Click strategy using disodium salts of amino acids improves the water solubility of plinabulin and KPU-300” (Bioorg Med Chem, 2017)
